Columns and labels:
[1] = system: CCRF-CEM; test: Antiproliferative activity against human CEM cells assessed as cell growth inhibition; format: functional, cell-based
[2] = Antiproliferative activity against human Molt 4/C8 cells assessed as cell growth inhibition; format: functional, cell-based; details: Molt4/C8
[3] = system: P388; test: Antiproliferative activity against mouse P388 cells assessed as cell growth inhibition; format: functional, cell-based
[4] = system: L1210; test: Antiproliferative activity against mouse L1210 cells assessed as cell growth inhibition; format: functional, cell-based
[5] = system: MDA-MB-231; test: Growth inhibition of human MDA-MB-231 cells measured after 72 hrs by microplate reader analysis; format: functional
[6] = system: RPMI-7951; test: Growth inhibition of human RPMI-7951 cells measured after 72 hrs by microplate reader analysis; format: functional, cell-based; details: for GI50: RPMI-7951, time 72 hrs
[7] = system: HuCCT-1; test: Antiproliferative activity against human HuCCT-1 cells assessed as cell growth inhibition measured after 72 hrs; format: functional, cell-based; details: HuCCT-1, 72 h
[8] = Antiproliferative activity against human OVK18 cells assessed as cell growth inhibition measured after 72 hrs; format: functional, cell-based; details: OVK18, 72 h
[9] = system: Huh-7; test: Antiproliferative activity against human Huh-7 cells assessed as cell growth inhibition measured after 72 hrs; format: functional, cell-based; details: Huh-7, 72 h
[10] = system: G-361; test: Antiproliferative activity against human G-361 cells assessed as cell growth inhibition measured after 72 hrs; format: functional, cell-based; details: G-361, 72 h
[11] = system: PC-3; test: Antiproliferative activity against human PC-3 cells assessed as cell growth inhibition measured after 72 hrs; format: functional, cell-based; details: PC-3, 72 h
[12] = Antiproliferative activity against human PK-1 cells assessed as cell growth inhibition measured after 72 hrs; format: functional, cell-based; details: PK-1, 72 h
[13] = system: A549; test: Antiproliferative activity against human A549 cells assessed as cell growth inhibition measured after 72 hrs; format: functional, cell-based; details: A549, 72 h
[14] = system: GCIY; test: Antiproliferative activity against human GCIY cells assessed as cell growth inhibition measured after 72 hrs; format: functional, cell-based
[15] = system: HCT-116; test: Antiproliferative activity against human HCT-116 cells assessed as cell growth inhibition measured after 72 hrs; format: functional, cell-based; details: HCT-116, 72 h
[16] = system: ACHN; test: Antiproliferative activity against human ACHN cells assessed as cell growth inhibition measured after 72 hrs; format: functional, cell-based
[17] = system: A-431; test: Antiproliferative activity against human A-431 cells assessed as cell growth inhibition measured after 72 hrs; format: functional, cell-based; details: A-431, 72 h
[18] = system: DLD-1; test: Antiproliferative activity against human DLD-1 cells assessed as cell growth inhibition measured after 72 hrs; format: functional, cell-based; details: DLD-1, 72 h
[19] = Antiproliferative activity against human SH-10-TC cells assessed as cell growth inhibition measured after 72 hrs; format: functional, cell-based
[20] = system: MCF7; test: Antiproliferative activity against human MCF7 cells assessed as cell growth inhibition measured after 72 hrs; format: functional, cell-based; details: MCF7, 72 h
[21] = system: 8505C; test: Antiproliferative activity against human 8505C cells assessed as cell growth inhibition measured after 72 hrs; format: functional, cell-based

SMILES	IC50 [1]	IC50 [2]	IC50 [3]	IC50 [4]	further results
COc1ccc(/C=C2\CNC/C(=C\c3ccc(OC)cc3)C2=O)cc1	0.81 µM	0.81 µM	0.81 µM	0.81 µM	
C=CC(=O)N1C/C(=C\c2ccc(Cl)c(Cl)c2)C(=O)/C(=C/c2ccc(Cl)c(Cl)c2)C1	0.28 µM	0.28 µM	0.28 µM	0.28 µM	
C=CC(=O)N1C/C(=C\c2ccc(Cl)cc2)C(=O)/C(=C/c2ccc(Cl)cc2)C1	0.28 µM	0.28 µM	0.28 µM	0.28 µM	
O=C1/C(=C/c2ccccc2)CNC/C1=C\c1ccccc1	0.81 µM	0.81 µM	0.81 µM	0.81 µM	
O=C1/C(=C/c2ccc(Cl)c(Cl)c2)CNC/C1=C\c1ccc(Cl)c(Cl)c1	0.81 µM	0.81 µM	0.81 µM	0.81 µM	
C=CC(=O)N1C/C(=C\c2ccc(OC)cc2)C(=O)/C(=C/c2ccc(OC)cc2)C1	0.28 µM	0.28 µM	0.28 µM	0.28 µM	
C=CC(=O)N1C/C(=C\c2ccccc2)C(=O)/C(=C/c2ccccc2)C1	0.28 µM	0.28 µM	0.28 µM	0.28 µM	
C=CC(=O)N1C/C(=C\c2ccc([N+](=O)[O-])cc2)C(=O)/C(=C/c2ccc([N+](=O)[O-])cc2)C1	0.28 µM	0.28 µM	0.28 µM	0.28 µM	
O=C1/C(=C/c2ccccc2)CN(C(=O)/C=C/c2ccccc2)C/C1=C\c1ccccc1	1.61 µM	1.6 µM	0.221 µM	5.34 µM	
C=CC(=O)N1C/C(=C\c2ccc(N(C)C)cc2)C(=O)/C(=C/c2ccc(N(C)C)cc2)C1	0.28 µM	0.28 µM	0.28 µM	0.28 µM	
CC(=O)Oc1ccccc1/C=C/C(=O)/C=C/c1ccccc1OC(C)=O					GI50 [5]: 1 µM; GI50 [6]: 2.3 µM
O=C1/C(=C/c2ccc(Cl)cc2)CNC/C1=C\c1ccc(Cl)cc1	0.81 µM	0.81 µM	0.81 µM	0.81 µM	
O=C1/C(=C/c2ccc([N+](=O)[O-])cc2)CNC/C1=C\c1ccc([N+](=O)[O-])cc1	0.81 µM	0.81 µM	0.81 µM	0.81 µM	
C=CC(=O)N1C/C(=C\c2ccc(F)cc2)C(=O)/C(=C/c2ccc(F)cc2)C1	0.28 µM	0.28 µM	0.28 µM	0.28 µM	
O=C1/C(=C/c2ccc(F)cc2)CNC/C1=C\c1ccc(F)cc1	0.81 µM	0.81 µM	0.81 µM	0.81 µM	
O=C1/C(=C/c2ccccc2F)COC/C1=C\c1ccccc1F					GI50 [5]: 0.8 µM; GI50 [6]: 0.8 µM
COc1ccc(/C=C2\CCC/C(=C\c3ccc(OC)c(OC)c3)C2=O)cc1OC					IC50 [7]: 10 µM; IC50 [8]: 10 µM; IC50 [9]: 10 µM; IC50 [10]: 10 µM; IC50 [11]: 10 µM; IC50 [12]: 10 µM; IC50 [13]: 10 µM; IC50 [14]: 10 µM; IC50 [15]: 10 µM; IC50 [16]: 10 µM; IC50 [17]: 10 µM; IC50 [18]: 10 µM; IC50 [19]: 10 µM; IC50 [20]: 10 µM; IC50 [21]: 10 µM
COc1ccccc1/C=C/C(=O)/C=C/c1ccccc1OC					GI50 [5]: 1 µM; GI50 [6]: 2.3 µM
CN(C)c1ccc(/C=C2\CNC/C(=C\c3ccc(N(C)C)cc3)C2=O)cc1	0.81 µM	0.81 µM	0.81 µM	0.81 µM	
Cc1ccc(C(=O)/C=C/c2ccc(C(=O)N3C/C(=C\c4ccccc4)C(=O)/C(=C/c4ccccc4)C3)cc2)cc1C	1.61 µM	1.6 µM	0.221 µM	5.34 µM	
O=C1/C(=C/c2ccccc2)CN(C(=O)/C=C/c2ccc3c(c2)OCO3)C/C1=C\c1ccccc1	1.61 µM	1.6 µM	0.221 µM	5.34 µM	

SMILES	IC50 [1]	IC50 [2]	IC50 [3]	IC50 [4]	further results
O=C1/C(=C/c2ccccc2F)CNC/C1=C\c1ccccc1F					GI50 [5]: 0.8 µM; IC50 ([6]; RPMI-7951, 72 h): 0.7 µM
O=C1/C(=C/c2ccccc2)CN(C(=O)c2ccc(/C=C/C(=O)c3ccc([N+](=O)[O-])cc3)cc2)C/C1=C\c1ccccc1	1.61 µM	1.6 µM		5.34 µM	
O=C1/C(=C/c2ccccc2)CN(C(=O)c2ccc(/C=C/C(=O)c3ccccc3)cc2)C/C1=C\c1ccccc1	1.61 µM	1.6 µM	0.221 µM	5.34 µM	
COc1cc(CCC(O)CCc2cc(OC)c(OC)c(OC)c2)cc(OC)c1OC					IC50 [7]: > 50 µM; IC50 [8]: > 50 µM; IC50 [9]: > 50 µM; IC50 [10]: > 50 µM; IC50 [11]: > 50 µM; IC50 [12]: > 50 µM; IC50 [13]: > 50 µM; IC50 [14]: > 50 µM; IC50 [15]: > 50 µM; IC50 [16]: > 50 µM; IC50 [17]: > 50 µM; IC50 [18]: > 50 µM; IC50 [19]: > 50 µM; IC50 [20]: > 50 µM; IC50 [21]: > 50 µM
O=C1/C(=C/c2ccccc2O)COC/C1=C\c1ccccc1O					GI50 [5]: 0.8 µM; GI50 [6]: 0.8 µM
O=C1/C(=C/c2ccccc2)CN(C(=O)c2ccc(/C=C/C(=O)c3ccc(Cl)c(Cl)c3)cc2)C/C1=C\c1ccccc1	1.61 µM	1.6 µM	0.221 µM	5.34 µM	
O=C1/C(=C/c2ccccc2)CN(C(=O)c2ccc(/C=C/C(=O)c3ccc(O)cc3)cc2)C/C1=C\c1ccccc1	1.61 µM	1.6 µM	0.221 µM		
O=C1/C(=C/c2ccccc2)CN(C(=O)/C=C/c2ccc(Cl)cc2)C/C1=C\c1ccccc1	1.61 µM	1.6 µM	0.221 µM	5.34 µM	
O=C1/C(=C/c2ccccc2)CN(C(=O)/C=C/c2ccc([N+](=O)[O-])cc2)C/C1=C\c1ccccc1	1.61 µM	1.6 µM	0.221 µM	5.34 µM	
Cc1ccc(/C=C/C(=O)N2C/C(=C\c3ccccc3)C(=O)/C(=C/c3ccccc3)C2)cc1	1.61 µM	1.6 µM	0.221 µM	5.34 µM	
COc1ccc(/C=C/C(=O)N2C/C(=C\c3ccccc3)C(=O)/C(=C/c3ccccc3)C2)cc1	1.61 µM	1.6 µM	0.221 µM	5.34 µM	
Cc1ccc(C(=O)/C=C/c2ccc(C(=O)N3C/C(=C\c4ccccc4)C(=O)/C(=C/c4ccccc4)C3)cc2)cc1	1.61 µM	1.6 µM	0.221 µM	5.34 µM	
CCOC(C)COc1c(OC)cc(/C=C/C(=O)/C=C/c2cc(OC)c(OC)c(OC)c2)cc1OC (stereo unspecified)					IC50 [7]: 1 µM; IC50 [8]: 1 µM; IC50 [9]: 1 µM; IC50 [10]: 1 µM; IC50 [11]: 1 µM; IC50 [12]: 1 µM; IC50 [13]: 1 µM; IC50 [14]: 1 µM; IC50 [15]: 1 µM; IC50 [16]: 1 µM; IC50 [17]: 1 µM; IC50 [18]: 1 µM; IC50 [19]: 1 µM; IC50 [20]: 1 µM; IC50 [21]: 1 µM
COc1ccc(C(=O)/C=C/c2ccc(C(=O)N3C/C(=C\c4ccccc4)C(=O)/C(=C/c4ccccc4)C3)cc2)cc1OC	1.61 µM	1.6 µM	0.221 µM	5.34 µM	
COc1ccc(C(=O)/C=C/c2ccc(C(=O)N3C/C(=C\c4ccccc4)C(=O)/C(=C/c4ccccc4)C3)cc2)cc1	1.61 µM	1.6 µM	0.221 µM	5.34 µM	
COc1ccc(/C=C/C(=O)N2C/C(=C\c3ccccc3)C(=O)/C(=C/c3ccccc3)C2)cc1OC	1.61 µM	1.6 µM	0.221 µM	5.34 µM	
COc1cc(/C=C/C(=O)N2C/C(=C\c3ccccc3)C(=O)/C(=C/c3ccccc3)C2)cc(OC)c1OC	1.61 µM	1.6 µM	0.221 µM	5.34 µM	
O=C1/C(=C/c2ccccc2)CN(C(=O)c2ccc(/C=C/C(=O)c3ccc(Cl)cc3)cc2)C/C1=C\c1ccccc1	1.61 µM	1.6 µM	0.221 µM	5.34 µM	
O=C1/C(=C/c2ccccc2)CN(C(=O)/C=C/c2ccc(Cl)c(Cl)c2)C/C1=C\c1ccccc1	1.61 µM	1.6 µM	0.221 µM	5.34 µM	
COc1cc(/C=C/C(=O)/C=C/c2cccc(O)c2)cc(OC)c1OC					IC50 [7]: 1 µM; IC50 [8]: 1 µM; IC50 [9]: 1 µM; IC50 [10]: 1 µM; IC50 [11]: 1 µM; IC50 [12]: 1 µM; IC50 [13]: 1 µM; IC50 [14]: 1 µM; IC50 [15]: 1 µM; IC50 [16]: 1 µM; IC50 [17]: 1 µM; IC50 [18]: 1 µM; IC50 [19]: 1 µM; IC50 [20]: 1 µM; IC50 [21]: 1 µM
CCOC(C)Oc1cccc(/C=C/C(=O)/C=C/c2cc(OC)c(OC)c(OC)c2)c1 (stereo unspecified)					IC50 [7]: 1 µM; IC50 [8]: 1 µM; IC50 [9]: 1 µM; IC50 [10]: 1 µM; IC50 [11]: 1 µM; IC50 [12]: 1 µM; IC50 [13]: 1 µM; IC50 [14]: 1 µM; IC50 [15]: 1 µM; IC50 [16]: 1 µM; IC50 [17]: 1 µM; IC50 [18]: 1 µM; IC50 [19]: 1 µM; IC50 [20]: 1 µM; IC50 [21]: 1 µM
